Measured values taken from article PMC11990879, “Anticandidal Activity of Lipopeptides Containing an LL-37-Derived Peptide Fragment KR12” (Molecules, 2025).
Where two headings read alike, the source gives them in different places. Marks after values point to notes of the source that are not given here. Where a SMILES comes first, the peptide text is derived from it. Where no end group is shown, it is not given here. The star is where a group is joined. Decanoyl = CCCCCCCCCC(=O)*; Octanoyl = CCCCCCCC(=O)*

Experiments:
human red blood cells = conditions: cited from earlier work
Source text: Table 2 Minimum inhibitory concentrations (MIC) and minimum fungicidal concentrations (MFC) determined for peptides and reference antifungals [g/L]. The highest antimicrobial activity is marked in green, medium values in yellow, while the weakest antifungal activity is marked in red. Minimum hemolytic concentration (MHC5%—causing hemolysis of 5% of human red blood cells) determined in previous stu | column: MHC5%

[1] = tested on: C. albicans biofilms cultured on polystyrene; type: cell-based, Candida albicans
Experimental: (§1) Fungal strains were purchased from the Polish Collection of Microorganisms (Polish Academy of Science, Wroclaw, Poland). Four reference strains of Candida (C. albicans ATCC 10231, C. glabrata ATCC 15126, C. lypolytica PCM 2680, and C. tropicalis PCM 2680) were cultured on the Dextrose Sabouraud Agar (DSA, Neogen, Lansing, MI, USA). Before performing the assays, the fungi were cultured in a Sabouraud dextrose broth (DSB, Neogen, Lansing, MI, USA) for 48 h under aerobic conditions at 25 °C. Afterward, the fungal cultures were centrifuged (2500 rpm, 10 min) and resuspended in the appropriate liquid medium for appropriate inoculums for the performed assays.
Fungal suspensions in DSB were added to the wells at initial inoculums of ca. 5 × 10^6 CFU/mL and incubated under aerobic conditions, at 25 °C for 24 h, 48 h, and 72 h, in order to grow candidal biofilms of different maturity. After the appropriate time of incubation, the wells were washed with phosphoric buffered (PBS), and fresh RPMI medium supplemented with antifungals and the lipopeptides at graded concentrations (range […]) were added. The fungal biofilms were exposed to the compounds for 24 h (aerobic conditions, 25 °C). After the exposure to antifungals, the content of the wells was aspirated and a 0.01% solution of resazurin (Sigma-Aldrich, St. Louis, MO, USA) in DSB was added. Resazurin (blue) was applied as a cell viability reagent, which upon contact with living cells is reduced to a pink resorufin. The samples with the dye were incubated for 1 h at 25 °C and the absorbance was measured at 570 and 600 nm with a microplate reader (Thermo Fisher Scientific, Waltham, MA, USA). The assays were performed four times on four different days. The results are presented as the means of the measured percentage of metabolic activity (MA) of fungi in the well when compared with positive (sample with Candida in DSB) and negative controls (pure DSB), which were taken as 100% and 0%, respectively. The MA of Candida in the samples was measured according to the following formula:MA(%) = (ΔAbs of sample − ΔAbs of negative control)/(ΔAbs of positive control − ΔAbs of negative control);(1) ΔAbs = absorbance at 570 nm − absorbance at 600 nm.(2)
The MBEC was taken as the lowest concentration of antifungal which allowed us to reduce the metabolism of fungal cells to 10% (or less) of the positive control.

[2] = tested on: C. albicans biofilms cultured on polystyrene; type: cell-based, Candida albicans; conditions: C. albicans biofilms of 24, 48 and 72 h, up to 512 mg/L
C. albicans ATCC 10231 [3] = test: microbe, parasite or virus in culture; type: cell-based, Candida albicans; conditions: MIC wells and two higher concentrations seeded on DSA, 48 h, 25 °C, read visually, three times
Experimental: as §1
(§2) The strains cultured described in Section 4.1 were suspended in the Roswell Park Memorial Institute 1640 Medium (RPMI, Sigma-Aldrich, St. Louis, MO, USA) at an initial inoculum of ca. 5 × 10^3 CFU/mL. The stock solutions (1024 mg/L) of tested compounds in RPMI were added to 96-well polystyrene plates and diluted serially to well no. 10, leaving wells 11 and 12 for fertility and sterility controls. The tested Candida strains were exposed to graded concentrations (range 0.5–256 mg/L) of the lipopeptides and conventional antifungals (benzalkonium chloride, fluconazole, and nystatin) for 48 h under aerobic conditions at 25 °C. After incubation, the results were read visually.
(§3) Then the results were read visually. Both MIC as well as the MFC assays were performed threetimes on three different days.

[4] = tested on: Candida strains (C. albicans, C. glabrata, C. lipolytica, C. tropicalis); type: cell-based; conditions: MFCs equal to or twice as high as the corresponding MICs
Experimental: as §1, §2, §3

C. tropicalis PCM 2680 [5] = test: microbe, parasite or virus in culture; type: cell-based, Candida tropicalis; conditions: MIC wells and two higher concentrations seeded on DSA, 48 h, 25 °C, read visually, three times
Experimental: as §1, §2, §3

C. tropicalis PCM 2680 [6] = test: microbe, parasite or virus in culture; type: cell-based, Candida tropicalis
Experimental: as §1, §2

C. glabrata ATCC 15126 [7] = test: microbe, parasite or virus in culture; type: cell-based, Candida glabrata; conditions: MIC wells and two higher concentrations seeded on DSA, 48 h, 25 °C, read visually, three times
Experimental: as §1, §2, §3

C. albicans ATCC 10231 [8] = test: microbe, parasite or virus in culture; type: cell-based, Candida albicans
Experimental: as §1, §2

C. lypolytica PCM 2680 [9] = test: microbe, parasite or virus in culture; type: cell-based, Candida lipolytica; conditions: MIC wells and two higher concentrations seeded on DSA, 48 h, 25 °C, read visually, three times
Experimental: as §1, §2, §3

C. lypolytica PCM 2680 [10] = test: microbe, parasite or virus in culture; type: cell-based, Candida lipolytica; conditions: RPMI 1640, inoculum ca. 5 × 10^3 CFU/mL, range 0.5–256 mg/L, 48 h, 25 °C, read visually, three times on three days
Experimental: as §1, §2

C. glabrata ATCC 15126 [11] = test: microbe, parasite or virus in culture; type: cell-based, Candida glabrata; conditions: first C. glabrata column; RPMI 1640, inoculum ca. 5 × 10^3 CFU/mL, range 0.5–256 mg/L, 48 h, 25 °C, read visually, three times on three days
Experimental: as §1, §2

[12] = biofilms cultured on polystyrene, 24 h
[13] = biofilms cultured on polystyrene, 48 h
[14] = biofilms cultured on polystyrene, 72 h
[15] = no inhibition at the highest concentration applied

CCCCCCCCCC(=O)N[C@@H](CCCCN)C(=O)N[C@@H](CCCNC(=N)N)C(=O)N[C@H](C(=O)N[C@H](C(=O)N[C@@H](CCC(N)=O)C(=O)N[C@@H](CCCNC(=N)N)C(=O)N[C@H](C(=O)N[C@@H](CCCCN)C(=O)N[C@@H](CC(=O)O)C(=O)N[C@@H](Cc1ccccc1)C(=O)N[C@@H](CC(C)C)C(=O)N[C@@H](CCCNC(=N)N)C(N)=O)[C@@H](C)CC)C(C)C)[C@@H](C)CC [V, C10-KR12-NH2] (Decanoyl-KRIVQRIKDFLR-NH2)
MHC5% (minimum hemolytic concentration causing hemolysis of 5% of human red blood cells) (human red blood cells): 4 g/L | MBEC 24 h [1, 12]: >512 * mg/L | MBEC 48 h [1, 13]: >512 * mg/L | MBEC 72 h [1, 14]: >512 * mg/L | Antibiofilm activity against any type of biofilm [2]: did not exhibit antibiofilm activity

benzalkonium chloride [reference compound]
Minimum fungicidal concentration (MFC), C. albicans (C. albicans ATCC 10231 [3]): 4 µg/mL | Fungicidal activity (MFC relative to MIC) [4]: fungicidal activity against all Candida strains | Minimum fungicidal concentration (MFC), C. tropicalis (C. tropicalis PCM 2680 [5]): 2 µg/mL | Minimum inhibitory concentration (MIC), C. tropicalis (C. tropicalis PCM 2680 [6]; C. tropicalis, RPMI 1640, inoculum ca. 5 × 10^3 CFU/mL, range 0.5–256 mg/L, 48 h, 25 °C, read visually, three times on three days): 0.5 µg/mL | Minimum fungicidal concentration (MFC), C. glabrata (C. glabrata ATCC 15126 [7]): 2 µg/mL | MBEC 24 h ([1]; C. albicans biofilm cultured on polystyrene for 24 h, exposure 24 h, 25 °C, RPMI, resazurin, metabolic activity reduced to 10% or less, four times on four days): 64 mg/L | MBEC 48 h ([1]; C. albicans biofilm cultured on polystyrene for 48 h, exposure 24 h, 25 °C, RPMI, resazurin, metabolic activity reduced to 10% or less, four times on four days): 128 mg/L | MBEC 72 h ([1]; C. albicans biofilm cultured on polystyrene for 72 h, exposure 24 h, 25 °C, RPMI, resazurin, metabolic activity reduced to 10% or less, four times on four days): 128 mg/L | Concentration effective against 48–72 h biofilms relative to MIC ([1]; C. albicans, 48–72 h biofilms, MBEC/MIC): > 60 times | Concentration effective against 24 h biofilm relative to MIC ([1]; C. albicans, 24 h biofilm, MBEC/MIC): over 30 times | Minimum inhibitory concentration (MIC), C. albicans (C. albicans ATCC 10231 [8]; C. albicans, RPMI 1640, inoculum ca. 5 × 10^3 CFU/mL, range 0.5–256 mg/L, 48 h, 25 °C, read visually, three times on three days): 2 µg/mL | Minimum fungicidal concentration (MFC), C. lipolytica (C. lypolytica PCM 2680 [9]): 2 µg/mL | Minimum inhibitory concentration (MIC), C. lipolytica (C. lypolytica PCM 2680 [10]): 1 µg/mL | Minimum inhibitory concentration (MIC), C. glabrata (C. glabrata ATCC 15126 [11]): 1 µg/mL

CCCCCCCC(=O)NCCCC[C@H](NC(=O)CCCCCCC)C(=O)N[C@@H](CCCNC(=N)N)C(=O)N[C@H](C(=O)N[C@H](C(=O)N[C@@H](CCC(N)=O)C(=O)N[C@@H](CCCNC(=N)N)C(=O)N[C@H](C(=O)N[C@@H](CCCCN)C(=O)N[C@@H](CC(=O)O)C(=O)N[C@@H](Cc1ccccc1)C(=O)N[C@@H](CC(C)C)C(=O)N[C@@H](CCCNC(=N)N)C(N)=O)[C@@H](C)CC)C(C)C)[C@@H](C)CC [XVI, C8^α,C8^ε-KR12-NH2] (Octanoyl-K(Octanoyl)RIVQRIKDFLR-NH2)
MHC5% (minimum hemolytic concentration causing hemolysis of 5% of human red blood cells) (human red blood cells): >256 * g/L | Growth inhibition of C. tropicalis (MIC) (C. tropicalis PCM 2680 [6]; [15]): resistant | Growth inhibition of C. albicans (MIC) (C. albicans ATCC 10231 [8]; [15]): resistant

KRIVQRIKDFLR-NH2 [X, KR12-NH2]
MHC5% (minimum hemolytic concentration causing hemolysis of 5% of human red blood cells) (human red blood cells): >256 * g/L | MBEC 24 h [1, 12]: >512 * mg/L | MBEC 48 h [1, 13]: >512 * mg/L | MBEC 72 h [1, 14]: >512 * mg/L
